Source: PubChem BioAssay AID2060500 (Molecular Pharmacology Branch, DTP, NCI, 2025)
Values joined by “and” are separate entries in the source; they are usually repeats but may differ in a detail not shown here. Identical values can stand only once.

Test system: 596521-263-R-J1-PDC complex spheroids, viability % of control
Assay: Anticancer human tumor 596521-263-R-J1-PDC patient-derived soft tissue sarcoma cell line growth inhibition [GQUAD]
Conditions: for viability, T/C: stronger effect = lower value
From the text: DNA G-quadruplex Stabilizer Agents in Combinations in Complex Spheroids
A high-throughput screen of multi-cell type tumor spheroids was designed to identify active combinations of DNA G-quadruplex stabilizer agents and targeted small molecules. Complex spheroids include a stromal component modeled by human endothelial cells (HUVEC) and fibroblasts modeled by human mesenchymal stem cells (MSCs). The concentration ranges selected for each drug and investigational agent were based upon clinically achievable concentrations if the clinical Cmax of the agent was known.
Compounds. The drugs and investigational agents: pidnarulex (CX-5461; NSC782164), APTO-253 (NSC789042), BRACO-19 (NSC847499), peposertib (NSC802822), ceralasertib (NSC780249), elimusertib (NSC800525), camonsertib (NSC841442), AZD-1390 (NSC803789), olaparib (NSC753686), talazoparib (NSC767125), ART-558 (NSC835418), sotorasib (NSC818433), MRTX-1133 (NSC836407), SN-38 (NSC673596), topotecan (NSC609699), etoposide (NSC141540), doxorubicin (NSC123127), gemcitabine (NSC613327), 5-fluorouracil (NSC19893), paclitaxel (NSC125973), vemurafenib (NSC761431), panobinostat (NSC761190), R-306465 (JNJ-16241199; NSC773264), adavosertib (NSC754352), TP-3654 (NSC805149), carboplatin (NSC241240), KSQ-4279 (NSC840948), and staurosporine (NSC755774) were obtained from the National Cancer Institute (NCI) Developmental Therapeutics Program Chemical Repository (34). The FDA-approved anticancer drug set is available from the NCI Developmental Therapeutics Program. […] The stock solutions were prepared in dimethyl sulfoxide (DMSO, Sigma-Aldrich, St. Louis, MO, cat. D2650) at 800-fold the tested concentration and stored at -70 degrees C prior to their use. All drugs and investigational agents were tested over a range starting from a high concentration at or near the clinical Cmax and decreasing in half-log increments. If the clinical Cmax for an agent had not been determined, the highest concentration tested was 10 microM.
2.3 Cell Culture. All cells were maintained in an incubator at 37 degrees C and 5% CO2 with 95% humidity. The PDC lines were cultured according to standard operating procedures established by the NCI PDMR. All PDCs were thawed and cultured in Matrigel-coated flasks prepared with a working solution of 1X Ham's F-12 nutrient mix, without supplementation (Invitrogen, cat. 11765054), 100 U/mL penicillin-streptomycin (Invitrogen, cat. 15140122), and 2.5% Matrigel (Corning Inc., cat. 354248) for the first three passages. The 857933-349-R-J2-PDC line was cultured in 6C/Colon 1B media, which includes advanced DMEM/F-12 (Thermo Fisher Scientific, cat. 12634028), 10 mM HEPES (Thermo Fisher Scientific, cat. 15630080), 1X GlutaMAX supplement (Thermo Fisher Scientific, cat. 35050061), 0.1 mg/mL primocin (InvivoGen, cat. ant-pm-2), 10% defined fetal bovine serum, heat inactivated (HyClone Laboratories Inc., cat. SH30070.03HI), 50% L-WRN conditioned media (ATCC, cat. CRL-3276), 1.25 mM N-Acetyl-L-cysteine (Sigma-Aldrich, cat. A9165), 10 mM nicotinamide (Sigma-Aldrich, cat. N0636), 1X B-27 supplement (Thermo Fisher Scientific, cat. 17504044), 1X N-2 supplement (Thermo Fisher Scientific, cat. 17502048), 10 microM Y-27632 dihydrochloride (Tocris Bioscience, cat. 1254), and 50 ng/mL human EGF recombinant protein (Thermo Fisher Scientific, cat. PHG0311). The 485176-168-R4-J1-PDC line was cultured in Panc media, which includes all 6C/Colon 1B media components plus 100 ng/mL human FGF-10 (Thermo Fisher Scientific, cat. 100-26), 500 nM SB-431542 (Selleckchem, cat. S1067), and gastrin (Tocris, cat. 3006).
[…]
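Note: spheroids exposed to drugs for 7 days before viability reading.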

## CC[C@@]1(O)C(=O)OCc2c1cc1n(c2=O)Cc2cc3c(CN(C)C)c(O)ccc3nc2-1
Compound 0.000999 µM
  viability, T/C: 102% and 100% and 105%
Compound 0.00316 µM
  viability, T/C: 102% and 88.7% and 106%
Compound 0.00999 µM
  viability, T/C: 87.2% and 87.7% and 96.7%
Compound 0.0316 µM
  viability, T/C: 78.6% and 59.5% and 63.7%
Compound 0.0999 µM
  viability, T/C: 57.2% and 51.5% and 58.3%
Compound 0.316 µM
  viability, T/C: 52.4% and 46.4% and 50.7%
Curve of compound
  IC50: > 316 nM and 93.3 nM

## Cn1ncnc1[C@H]1c2n[nH]c(=O)c3cc(F)cc(c23)N[C@@H]1c1ccc(F)cc1
Compound 0.000999 µM
  viability, T/C: 92.8% and 91% and 93.5%
Compound 0.00316 µM
  viability, T/C: 93.2% and 98.2% and 100%
Compound 0.00999 µM
  viability, T/C: 93.6% and 94% and 101%
Compound 0.0316 µM
  viability, T/C: 94.5% and 86.7% and 93.1%
Compound 0.0999 µM
  viability, T/C: 89.3% and 80.8% and 106%
Compound 0.316 µM
  viability, T/C: 92.8% and 88% and 76.6%
Curve of compound
  IC50: > 316 nM

## Nc1ccn(C2OC(CO)C(O)C2(F)F)c(=O)n1 (stereo not given) + Cc1cnc(CNC(=O)c2c(=O)c3ccc(N4CCCN(C)CC4)nc3n3c2sc2ccccc23)cn1
Curve of first compound, second compound 0.0316 µM
  IC50: 78.7 nM
Curve of first compound, second compound 0.1 µM
  IC50: 308 nM
Curve of first compound, second compound 0.316 µM
  IC50: 68 nM
Curve of first compound, second compound 1 µM
  IC50: 77.2 nM
Curve of first compound, second compound 3.16 µM
  IC50: < 31.6 nM
Curve of first compound, second compound 10 µM
  IC50: < 31.6 nM
Second compound 0.0316 µM, first compound 0.0316 µM
  viability, T/C: 58.3%
Second compound 0.0316 µM, first compound 0.1 µM
  viability, T/C: 44.5%
Second compound 0.0316 µM, first compound 0.316 µM
  viability, T/C: 49.4%
Second compound 0.0316 µM, first compound 1 µM
  viability, T/C: 51%
Second compound 0.0316 µM, first compound 3.16 µM
  viability, T/C: 47.4%
Second compound 0.0316 µM, first compound 10 µM
  viability, T/C: 46.8%
Second compound 0.1 µM, first compound 0.0316 µM
  viability, T/C: 60.1%
Second compound 0.1 µM, first compound 0.1 µM
  viability, T/C: 51%
Second compound 0.1 µM, first compound 0.316 µM
  viability, T/C: 53.3%
Second compound 0.1 µM, first compound 1 µM
  viability, T/C: 44.7%
Second compound 0.1 µM, first compound 3.16 µM
  viability, T/C: 38.6%
Second compound 0.1 µM, first compound 10 µM
  viability, T/C: 35.3%
Second compound 0.316 µM, first compound 0.0316 µM
  viability, T/C: 61.2%
Second compound 0.316 µM, first compound 0.1 µM
  viability, T/C: 43.9%
Second compound 0.316 µM, first compound 0.316 µM
  viability, T/C: 43.9%
Second compound 0.316 µM, first compound 1 µM
  viability, T/C: 49.8%
Second compound 0.316 µM, first compound 3.16 µM
  viability, T/C: 41.6%
Second compound 0.316 µM, first compound 10 µM
  viability, T/C: 41.8%
Second compound 1 µM, first compound 0.0316 µM
  viability, T/C: 59.6%
Second compound 1 µM, first compound 0.1 µM
  viability, T/C: 47.6%
Second compound 1 µM, first compound 0.316 µM
  viability, T/C: 42%
Second compound 1 µM, first compound 1 µM
  viability, T/C: 47.6%
Second compound 1 µM, first compound 3.16 µM
  viability, T/C: 52.2%
Second compound 1 µM, first compound 10 µM
  viability, T/C: 43%
Second compound 3.16 µM, first compound 0.0316 µM
  viability, T/C: 47.9%
Second compound 3.16 µM, first compound 0.1 µM
  viability, T/C: 41.9%
Second compound 3.16 µM, first compound 0.316 µM
  viability, T/C: 42.2%
Second compound 3.16 µM, first compound 1 µM
  viability, T/C: 40.2%
Second compound 3.16 µM, first compound 3.16 µM
  viability, T/C: 40.9%
Second compound 3.16 µM, first compound 10 µM
  viability, T/C: 42.6%
Second compound 10 µM, first compound 0.0316 µM
  viability, T/C: 47%
Second compound 10 µM, first compound 0.1 µM
  viability, T/C: 35.5%
Second compound 10 µM, first compound 0.316 µM
  viability, T/C: 38.9%
Second compound 10 µM, first compound 1 µM
  viability, T/C: 39.6%
Second compound 10 µM, first compound 3.16 µM
  viability, T/C: 42.7%
Second compound 10 µM, first compound 10 µM
  viability, T/C: 23.4%

## COc1cc(C2c3cc4c(cc3C(OC3OC5COC(C)OC5C(O)C3O)C3COC(=O)C23)OCO4)cc(OC)c1O (stereo not given)
Compound 0.0316 µM
  viability, T/C: 107% and 103% (2×)
Compound 0.1 µM
  viability, T/C: 87% and 88.9% and 88.6%
Compound 0.316 µM
  viability, T/C: 87.5% and 92% and 89.4%
Compound 1 µM
  viability, T/C: 60.7% and 62.7% and 57.5%
Compound 3.16 µM
  viability, T/C: 58.4% and 54.6% and 68.8%
Compound 10 µM
  viability, T/C: 43.3% and 45.5% and 49.7%
Curve of compound
  IC50: 5480 nM and 4380 nM and > 10000 nM

## CC1COCCN1c1cc(-c2ccnn2C)c2ccnc(-c3ccn[nH]3)c2n1 (stereo not given)
Compound 0.0316 µM
  viability, T/C: 78.3% and 73.2% and 70.2%
Compound 0.1 µM
  viability, T/C: 59.2% and 55.7% and 62.7%
Compound 0.316 µM
  viability, T/C: 57.2% and 47.1% and 50.2%
Compound 1 µM
  viability, T/C: 43.9% and 42.6% and 44.5%
Compound 3.16 µM
  viability, T/C: 30.3% and 34% and 31.6%
Compound 10 µM
  viability, T/C: 24.4% (2×) and 23.9%
Curve of compound
  IC50: 452 nM and 275 nM and 412 nM
